Consider 25 molecules from patent US7320984B2, “Remedies or preventives for urinary frequency or urinary incontinence and morphinan derivatives having nitrogen-containing heterocyclic group” (Toray Industries, Inc., priority 2002, dated 2008).

The subject of one test is rhythmic bladder contractions in rats. Nature of the test: Inhibitory effect against rhythmic bladder contractions in rats. As to conditions: anesthetized female SD rats, intravenous, dose 0.003 mg/kg body weight. In kind it is in vivo. How it is done:
Inhibitory Effect Against Rhythmic Bladder Contractions in Rats
Female SD rats were anesthetized with an intraperitoneal administration of urethane (1.0 g/kg). A polyethylene tube was inserted from the urethra to the bladder and the tube was fixed by ligation. Then physiological saline was appropriately infused (infusion rate: about 0.2 ml/min., maximum: about 1.5 ml/animal) through the tube to cause rhythmic bladder contractions. The rhythmic bladder contractions were monitored by measuring the intravesical pressure through a polyethylene tube inserted into the bladder. After confirming that stable rhythmic bladder contractions occurred at least 10 times, a vehicle containing a prescribed dose of a test compound was intravenously administration at a dose of 1 ml/kg. In cases where the intravesical pressure, within 10 minutes after the administration of the test compound, decreased to 50% or less of the intravesical pressure immediately […] the administration, the test compound was judged as having inhibitory effect against urinary bladder contractions, and the time period until the intravesical pressure returned to more than 50% was defined as inhibitory time of rhythmic bladder contractions. As the vehicle for administration, physiological saline was used for test compounds 4, 7, 8, 9, 10, 13, 29, 30, 31, 33, 34, 75, 76, 79, 80, 81, 82, 84, 89, 90, 91, 93, 94, 95, 110 and 111, aqueous 10% dimethylsulfoxide (DMSO) solution was used for test compounds 11, 12, 14, 15, 16, 17, 18, 20, 21, 23, 28, 46, 47, 50, 55, 56, 57, 58, 59, 60, 61, 62, 63, 64, 65, 66, 68, 69, 70, 71, 72, 73, 74, 77, 78, 83, 85, 86, 87, 88, 92, 96, 97, 98, 99, 100, […], 103, 104, 105, 106, 107, 108 and […], aqueous 20% dimethylsulfoxide (DMSO) solution was used for test compounds 1, 2, 67 and 101, and aqueous 5% xylitol solution was used for test compounds 5 and 35. The aqueous 10% DMSO solution, aqueous 20% DMSO solution and the aqueous 5% xylitol solution per se, which may influence on the inhibitory time of rhythmic bladder contractions, were also tested at a dose of 1 ml/kg. With any of the compounds, prolongation of the inhibitory time of rhythmic bladder contractions was observed when compared with that obtained in the group to which the vehicle alone was administered.
For the molecule `O=C1c2cccc(F)c2C(=O)N1[C@H]1CC[C@@]2(O)[C@H]3Cc4ccc(O)c5c4[C@@]2(CCN3CC2CC2)[C@H]1O5` [Compound 67, N-(17-cyclopropylmethyl-4,5α-epoxy-3,14-dihydroxymorphinan-6α-yl)-3-fluorophthalimide], the “Mean Inhibitory Time of Rhythmic Bladder Contractions” value (from here on “Mean Inhibitory Time”) is given as 27.3 min.

The same test, now with this note: anesthetized female SD rats, intravenous, dose 0.005 mg/kg body weight.
On to `O=C1c2ccc(F)cc2C(=O)N1[C@@H]1CC[C@@]2(O)[C@H]3Cc4ccc(O)c5c4[C@@]2(CCN3CC2CC2)[C@H]1O5` [Compound 16, N-(17-cyclopropylmethyl-4,5α-epoxy-3,14-dihydroxy-morphinan-6β-yl)-4-fluorophthalimide], for which the “Mean Inhibitory Time” value is recorded as 14.8 min. Turning to `C=CCN1CC[C@]23c4c5ccc(O)c4O[C@H]2[C@@H](N2C(=O)c4cccc(F)c4C2=O)CC[C@@]3(O)[C@H]1C5` [Compound 63, N-(17-allyl-4,5α-epoxy-3,14-dihydroxymorphinan-6α-yl)-3-fluorophthalimide], the “Mean Inhibitory Time” value is reported as 16.1 min.

The same test, now with this note: anesthetized female SD rats, intravenous, dose 0.01 mg/kg body weight.
For `CC1=C(C)C(=O)N([C@H]2CC[C@@]3(O)[C@H]4Cc5ccc(O)c6c5[C@@]3(CCN4CC3CC3)[C@H]2O6)C1=O` [Compound 76, N-(17-cyclopropylmethyl-4,5α-epoxy-3,14-dihydroxy-morphinan-6α-yl)-2,3-dimethyl-maleimide], the “Mean Inhibitory Time” value is recorded as 16.7 min.

The test is the same for the next values; noted with them: anesthetized female SD rats, intravenous, dose 0.03 mg/kg body weight.
As for `C=CCN1CC[C@]23c4c5ccc(O)c4O[C@H]2[C@@H](N2C(=O)c4cccc(C)c4C2=O)CC[C@@]3(O)[C@H]1C5` [Compound 61, N-(17-allyl-4,5α-epoxy-3,14-dihydroxymorphinan-6α-yl)-3-methylphthalimide], the “Mean Inhibitory Time” value turned out to be 22.6 min. `C=CCN1CC[C@]23c4c5ccc(O)c4O[C@H]2[C@H](N2C(=O)c4cccc(C)c4C2=O)CC[C@@]3(O)[C@H]1C5` [Compound 60, N-(17-allyl-4,5α-epoxy-3,14-dihydroxymorphinan-6β-yl)-3-methylphthalimide]: the “Mean Inhibitory Time” value turned out to be 19.7 min. For the molecule `C=CCN1CC[C@]23c4c5ccc(O)c4O[C@H]2[C@H](N2Cc4cccc(F)c4C2=O)CC[C@@]3(O)[C@H]1C5` [Compound 88, 2-(17-allyl-4,5α-epoxy-3,14-dihydroxy-morphinan-6β-yl)-7-fluoro-2,3-dihydro-isoindol-1-one], the “Mean Inhibitory Time” value came out at 10.7 min. Turning to `Cc1ccc2c(c1)C(=O)N([C@@H]1CC[C@@]3(O)[C@H]4Cc5ccc(O)c6c5[C@@]3(CCN4CC3CC3)[C@H]1O6)C2=O` [Compound 12, N-(17-cyclopropylmethyl-4,5α-epoxy-3,14-dihydroxy-morphinan-6β-yl)-4-methylphthalimide], the “Mean Inhibitory Time” value stood at 16.5 min.

Still in this test, the particulars now being: anesthetized female SD rats, intravenous, dose 0.1 mg/kg body weight.
Take `C=CCN1CC[C@]23c4c5ccc(O)c4O[C@H]2[C@H](N2C(=O)c4ccc(N)cc4C2=O)CC[C@@]3(O)[C@H]1C5` [Compound 99, N-(17-allyl-4,5α-epoxy-3,14-dihydroxy-morphinan-6β-yl)-4-amino-phthalimide]: the “Mean Inhibitory Time” value stood at 16.9 min.

For `CN1CCN([C@@H]2CC[C@@]3(O)[C@H]4Cc5ccc(O)c6c5[C@@]3(CCN4C)[C@H]2O6)c2ccccc21` [Compound 9, 4,5α-epoxy-6β-(3,4-dihydro-1-methyl-1H-quinoxalino)-17-methyl-morphinan-3,14-diol], the “Mean Inhibitory Time” value is 9.1 min. Consider `C=CCN1CC[C@]23c4c5ccc(O)c4O[C@H]2[C@H](N2C(=O)c4cccc(N)c4C2=O)CC[C@@]3(O)[C@H]1C5` [Compound 100, N-(17-allyl-4,5α-epoxy-3,14-dihydroxy-morphinan-6β-yl)-3-amino-phthalimide], for which the “Mean Inhibitory Time” value is 14.0 min. Regarding `C=CCN1CC[C@]23c4c5ccc(O)c4O[C@H]2[C@H](N2C(=O)c4ccccc4C2=O)CC[C@@]3(OC(C)=O)[C@H]1C5` [Compound 92, N-(14-acetoxy-17-allyl-4,5α-epoxy-3-hydroxymorphinan-6β-yl)-phthalimide], the “Mean Inhibitory Time” value turned out to be 16.0 min. Turning to `O=c1c2ccccc2[nH]n1[C@@H]1CC[C@@]2(O)[C@H]3Cc4ccc(O)c5c4[C@@]2(CCN3CC2CC2)[C@H]1O5` [Compound 103, 2-(17-cyclopropylmethyl-4,5α-epoxy-3,14-dihydroxy-morphinan-6β-yl)-1,2-dihydro-indazol-3-one], the “Mean Inhibitory Time” value was determined as 13.1 min. Consider `Nc1ccc2c(c1)C(=O)N([C@@H]1CC[C@@]3(O)[C@H]4Cc5ccc(O)c6c5[C@@]3(CCN4CC3CC3)[C@H]1O6)C2=O` [Compound 98, N-(17-cyclopropylmethyl-4,5α-epoxy-3,14-dihydroxy-morphinan-6β-yl)-4-amino-phthalimide], for which the “Mean Inhibitory Time” value is 7.2 min. On the same count and under the same terms, the figure for `O=C1[C@H]2CC=CC[C@H]2C(=O)N1[C@@H]1CC[C@@]2(O)[C@H]3Cc4ccc(O)c5c4[C@@]2(CCN3CC2CC2)[C@H]1O5` [Compound 78, N-(17-cyclopropylmethyl-4,5α-epoxy-3,14-dihydroxy-morphinan-6β-yl)-cis-1,2,3,6-tetrahydrophthalimide] is 13.4 min; for `O=C1C2=C(CCCC2)CN1[C@@H]1CC[C@@]2(O)[C@H]3Cc4ccc(O)c5c4[C@@]2(CCN3CC2CC2)[C@H]1O5` [Compound 83, 2-(17-cyclopropylmethyl-4,5α-epoxy-3,14-dihydroxy-morphinan-6β-yl)-2,3,4,5,6,7-hexahydro-isoindol-1-one] it is 10.6 min; for `C=CCN1CC[C@]23c4c5ccc(O)c4O[C@H]2[C@H](N2C(=O)c4ccccc4S2(=O)=O)CC[C@@]3(O)[C@H]1C5` [Compound 109, N-(17-allyl-4,5α-epoxy-3,14-dihydroxy-morphinan-6β-yl)-O-sulfonebenzimide] it is 18.1 min.

As to `O=C1c2cc(Cl)c(Cl)cc2C(=O)N1[C@@H]1CC[C@@]2(O)[C@H]3Cc4ccc(O)c5c4[C@@]2(CCN3CC2CC2)[C@H]1O5` [Compound 55, N-[17-(cyclopropylmethyl)-4,5α-epoxy-3,14-dihydroxymorphinan-6β-yl]-4,5-dichlorophthaimide], the “Mean Inhibitory Time” value is recorded as 15.0 min.

The test is the same for the next values; noted with them: anesthetized female SD rats, intravenous, dose 0.3 mg/kg body weight.
Regarding `O=C1C(Cc2ccccc2)CCN1[C@H]1CC[C@@]2(O)[C@H]3Cc4ccc(O)c5c4[C@@]2(CCN3CC2CC2)[C@H]1O5` (stereo partly drawn) [Compound 35, 1-(17-cyclopropylmethyl-4,5α-epoxy-3,14-dihydroxy-morphinan-6α-yl)-3-benzyl-pyrrolidin-2-one], the “Mean Inhibitory Time” value was determined as 29.9 min.

The same test, now with this note: anesthetized female SD rats, intravenous, dose 1.0 mg/kg body weight.
In the case of `Oc1ccc2c3c1O[C@H]1[C@H](N4CCCC4)CC[C@@]4(O)[C@@H](C2)N(CC2CC2)CC[C@]314` [Compound 111, 17-cyclopropylmethyl-4,5α-epoxy-6β-(pyrrolidin-1-yl)-morphinan-3,14-diol], the “Mean Inhibitory Time” value came out at 2.8 min. On the same count and under the same terms, as for `O=C1C(Cc2ccccc2)CCN1[C@@H]1CC[C@@]2(O)[C@H]3Cc4ccc(O)c5c4[C@@]2(CCN3CC2CC2)[C@H]1O5` (stereo partly drawn) [Compound 47, 1-(17-cyclopropylmethyl-4,5α-epoxy-3,14-dihydroxy-morphinan-6β-yl)-3-benzyl-pyrrolidin-2-one], the figure is 21.8 min; as for `CCN(CC)C(=O)[C@@H]1CCCN1[C@H]1CC[C@H]2[C@H]3Cc4ccc(O)c5c4[C@@]2(CCN3C)[C@H]1O5` [Compound 31, 1-(4,5α-epoxy-3-hydroxy-17-methyl-morphinan-6α-yl)-pyrrolidin-(2S)-carboxyl diethylamide], 1.0 min; as for `CCN(CC)C(=O)[C@@H]1CCCN1[C@@H]1CC[C@@]2(O)[C@H]3Cc4ccc(O)c5c4[C@@]2(CCN3C)[C@H]1O5` [Compound 29, 1-(4,5α-epoxy-3,14-dihydroxy-17-methyl-morphinan-6β-yl)-pyrrolidin-(2S)-carboxyl diethylamide], 0.8 min. As to `O=C1CCC(=O)N1[C@@H]1CC[C@@]2(O)[C@H]3Cc4ccc(O)c5c4[C@@]2(CCN3CC2CC2)[C@H]1O5` [Compound 20, N-(17-cyclopropylmethyl-4,5α-epoxy-3,14-dihydroxy-morphinan-6β-yl)-succinimide], the “Mean Inhibitory Time” value came to 18.1 min.

The same test, now with this note: anesthetized female SD rats, intravenous, dose 3.0 mg/kg body weight.
`CCN(CC)C(=O)C1CCCN([C@@H]2CC[C@@]3(O)[C@H]4Cc5ccc(O)c6c5[C@@]3(CCN4C)[C@H]2O6)C1` (stereo partly drawn) [Compound 33, 1-(4,5α-epoxy-3,14-dihydroxy-17-methyl-3-morphinan-6β-yl)-piperidin-3-carboxyl diethylamide]: the “Mean Inhibitory Time” value was 2.1 min.
